Laboratory results reported in US7674789B2, “Compounds” (Glaxo Group Limited, priority 2005, dated 2010).
Entries after “also recorded” stand apart in the source; their conditions may differ. Structures can show the parent of a compound that is named as a salt.

The molecules below were run on influx of neutrophils to the lung in LPS-challenged rats (assay: Rat LPS neutrophilia model). Settings: intratracheal compound 15 min-24 hours before LPS aerosol (100 ug/ml, 15 min), lavage 4 hours later, in at least one of the range of conditions tested.
Assay type: in vivo
Protocol: Rat LPS Neutrophilia Model
The effect of compounds on the influx of neutrophils to the lung in LPS-challenged rats is evaluated as follows. The test compound is suspended in one of the following solutions: 0.5% tween 80/PBS, 0.5% tween 80/saline, 10% EtOH/saline (with pH adjusted to 2.0, or 8.0 with HCl, or unadjusted), Saline @ pH 2.0, 6.5 or 8.0, 0.5% Tragacanth, 1% DMSO/20% Encapsin/Saline, or acidified 5% Tragacanth. The suspension process may be aided by the use of a glass homogenizer. For intratracheal administration, the animals are anesthetized with inhaled isoflurane and placed in a supine position, the trachea is intubated with a steel gavage needle (1.5 inch, 22 gauge, small ball) or a Penn-Century Microsprayer Aerosolizer (model IA-1B) and 200 ul of dosing solution is delivered. The animals are visually monitored during the recovery process, which typically occurs within two minutes.
Rats treated with compound or vehicle (15 min-24 hours pretreatment) are exposed to an LPS aerosol (100 ug/ml) for 15 min. Four hours later the rats are euthanized with pentobarbital (100 mg/kg, i.p.) and the airways are lavaged with 5 washes of 5 ml of phosphate buffered saline. The harvested cells are stained (Diffquick) and counted to determine total and differential cell data. In a typical study, macrophages represent 40-70% of the total cells, and polymorphonuclear cells 30-60% of the total cells. Inhibition of neutrophil levels relative to no compound controls is calculated based on the differential counts.
The assay has varying conditions, such as concentration, pretreat time, form of the compound (crystalline, amorphous, salts, micronised), and a wet or dry application of the compound. The data is obtained as % inhibition using a particular concentration and pretreat time.
`Cc1ccc(C(=O)Nc2ccc(F)cc2)cc1-c1nc(NCCCN(C)C)nc2c1CNC(=O)N2c1c(F)cccc1F` [Example 42, 3-(8-(2,6-difluorophenyl)-2-{[3-(dimethylamino)propyl]amino}-7-oxo-5,6,7,8-tetrahydropyrimido[4,5-d]pyrimidin-4-yl)-N-(4-fluorophenyl)-4-methylbenzamide] was tested, and the “inhibition of neutrophilia (neutrophil influx to the lung)” value (shortened to “inhibition of neutrophilia”) was “statistically significant inhibition of neutrophilia”. For `CCN(CC)CCCNc1nc(-c2cc(C(=O)Nc3ccc(F)cc3)ccc2C)c2c(n1)N(c1c(F)cccc1F)C(=O)NC2` [Example 43, 3-[2-{[3-(diethylamino)propyl]amino}-8-(2,6-difluorophenyl)-7-oxo-5,6,7,8-tetrahydropyrimido[4,5-d]pyrimidin-4-yl]-N-(4-fluorophenyl)-4-methylbenzamide], the “inhibition of neutrophilia” value was “inactive”. With `CCCNC(=O)c1ccc(C)c(-c2nc(N(C)CCCN(C)C)nc3c2CNC(=O)N3c2c(F)cccc2F)c1` [Example 53, 3-{8-(2,6-difluorophenyl)-2-[[3-(dimethylamino)propyl](methyl)amino]-7-oxo-5,6,7,8-tetrahydropyrimido[4,5-d]pyrimidin-4-yl}-4-methyl-N-propylbenzamide] the “inhibition of neutrophilia” value was “statistically nonsignificant inhibition of neutrophilia”. With `Cc1ccc(C(=O)NC(C)C)cc1-c1nc(N2CCC(N3CCCCC3)CC2)nc2c1CNC(=O)N2c1c(F)cccc1F` [Example 57, 3-[2-(1,4′-bipiperidin-1′-yl)-8-(2,6-difluorophenyl)-7-oxo-5,6,7,8-tetrahydropyrimido[4,5-d]pyrimidin-4-yl]-4-methyl-N-(1-methylethyl)benzamide] the “inhibition of neutrophilia” value was “statistically nonsignificant inhibition of neutrophilia”. `Cc1ccc(C(=O)NC(C)C)cc1-c1nc(N2CCC(N3CCCC3)CC2)nc2c1CNC(=O)N2c1c(F)cccc1F` [Example 60, 3-{8-(2,6-difluorophenyl)-7-oxo-2-[4-(1-pyrrolidinyl)-1-piperidinyl]-5,6,7,8-tetrahydropyrimido[4,5-d]pyrimidin-4-yl}-4-methyl-N-(1-methylethyl)benzamide] was tested, and the “inhibition of neutrophilia” value was “statistically nonsignificant inhibition of neutrophilia; also recorded: inactive”. `Cc1ccc(C(=O)NC(C)C)cc1-c1nc(N2CCC(N3CCC(C)CC3)CC2)nc2c1CNC(=O)N2c1c(F)cccc1F` [Example 70, 3-[8-(2,6-difluorophenyl)-2-(4-methyl-1,4′-bipiperidin-1′-yl)-7-oxo-5,6,7,8-tetrahydropyrimido[4,5-d]pyrimidin-4-yl]-4-methyl-N-(1-methylethyl)benzamide] was tested, and the “inhibition of neutrophilia” value was “statistically significant inhibition of neutrophilia”. In the case of `Cc1ccc(C(=O)NC(C)C)cc1-c1nc(N2CCC(N3CCN(C)CC3)CC2)nc2c1CNC(=O)N2c1c(F)cccc1F` [Example 72, 3-{8-(2,6-difluorophenyl)-2-[4-(4-methyl-1-piperazinyl)-1-piperidinyl]-7-oxo-5,6,7,8-tetrahydropyrimido[4,5-d]pyrimidin-4-yl}-4-methyl-N-(1-methylethyl)benzamide], the “inhibition of neutrophilia” value is reported as “statistically significant inhibition of neutrophilia”. For `CN(C)CCNc1nc(-c2cccc(C(=O)Nc3ccccc3)c2)c2c(n1)N(c1c(F)cccc1F)C(=O)NC2` [Example 91, 3-(8-(2,6-difluorophenyl)-2-{[2-(dimethylamino)ethyl]amino}-7-oxo-5,6,7,8-tetrahydropyrimido[4,5-d]pyrimidin-4-yl)-N-phenylbenzamide], the “inhibition of neutrophilia” value was “statistically significant inhibition of neutrophilia”. In the case of `CN(C)CCNc1nc(-c2cccc(C(=O)Nc3nccs3)c2)c2c(n1)N(c1c(F)cccc1F)C(=O)NC2` [Example 92, 3-(8-(2,6-difluorophenyl)-2-{[2-(dimethylamino)ethyl]amino}-7-oxo-5,6,7,8-tetrahydropyrimido[4,5-d]pyrimidin-4-yl)-N-1,3-thiazol-2-ylbenzamide], the “inhibition of neutrophilia” value is reported as “statistically significant inhibition of neutrophilia”. With `CN(C)CCNc1nc(-c2cccc(C(=O)Nc3ccc(F)cc3)c2)c2c(n1)N(c1c(F)cccc1F)C(=O)NC2` [Example 93, 3-(8-(2,6-difluorophenyl)-2-{[2-(dimethylamino)ethyl]amino}-7-oxo-5,6,7,8-tetrahydropyrimido[4,5-d]pyrimidin-4-yl)-N-(4-fluorophenyl)benzamide] the “inhibition of neutrophilia” value was “statistically nonsignificant inhibition of neutrophilia”. For `Cc1c(F)cc(C(=O)Nc2ccccc2)cc1-c1nc(NCCN(C)C)nc2c1CNC(=O)N2c1c(F)cccc1F` [Example 112, 3-(8-(2,6-difluorophenyl)-2-{[2-(dimethylamino)ethyl]amino}-7-oxo-5,6,7,8-tetrahydropyrimido[4,5-d]pyrimidin-4-yl)-5-fluoro-4-methyl-N-phenylbenzamide], the “inhibition of neutrophilia” value was “statistically significant inhibition of neutrophilia”. In the case of `Cc1ccc(C(=O)Nc2nccs2)cc1-c1nc(NCCCN(C)C)nc2c1CNC(=O)N2c1c(F)cccc1F` [Example 119, 3-(8-(2,6-difluorophenyl)-2-{[3-(dimethylamino)propyl]amino}-7-oxo-5,6,7,8-tetrahydropyrimido[4,5-d]pyrimidin-4-yl)-4-methyl-N-1,3-thiazol-2-ylbenzamide], the “inhibition of neutrophilia” value is reported as “statistically significant inhibition of neutrophilia”. For `CCN(CC)CCCNc1nc(-c2cc(C(=O)Nc3nccs3)ccc2C)c2c(n1)N(c1c(F)cccc1F)C(=O)NC2` [Example 120, 3-[2-{[3-(diethylamino)propyl]amino}-8-(2,6-difluorophenyl)-7-oxo-5,6,7,8-tetrahydropyrimido[4,5-d]pyrimidin-4-yl]-4-methyl-N-1,3-thiazol-2-ylbenzamide], the “inhibition of neutrophilia” value was “statistically significant inhibition of neutrophilia”. In the case of `Cc1ccc(C(=O)Nc2nccs2)cc1-c1nc(N(C)CCCN(C)C)nc2c1CNC(=O)N2c1c(F)cccc1F` [Example 124, 3-{8-(2,6-difluorophenyl)-2-[[3-(dimethylamino)propyl](methyl)amino]-7-oxo-5,6,7,8-tetrahydropyrimido[4,5-d]pyrimidin-4-yl}-4-methyl-N-1,3-thiazol-2-ylbenzamide], the “inhibition of neutrophilia” value is reported as “statistically nonsignificant inhibition of neutrophilia”. With `CSc1ccc(NC(=O)c2ccc(C)c(-c3nc(NCCN(C)C)nc4c3CNC(=O)N4c3c(F)cccc3F)c2)cc1` [Example 127, 3-(8-(2,6-difluorophenyl)-2-{[2-(dimethylamino)ethyl]amino}-7-oxo-5,6,7,8-tetrahydropyrimido[4,5-d]pyrimidin-4-yl)-4-methyl-N-[4-(methylthio)phenyl]benzamide] the “inhibition of neutrophilia” value was “statistically significant inhibition of neutrophilia”. For `Cc1ccc(C(=O)Nc2nccs2)cc1-c1nc(NC[C@H](C)O)nc2c1CNC(=O)N2c1c(F)cccc1F` [Example 134, 3-(8-(2,6-difluorophenyl)-2-{[(2S)-2-hydroxypropyl]amino}-7-oxo-5,6,7,8-tetrahydropyrimido[4,5-d]pyrimidin-4-yl)-4-methyl-N-1,3-thiazol-2-ylbenzamide], the “inhibition of neutrophilia” value was “statistically nonsignificant inhibition of neutrophilia”. In the case of `Cc1ccc(C(=O)Nc2ccccc2)cc1-c1nc(NCCN(C)C)nc2c1CNC(=O)N2c1c(F)cccc1F` [Example 137, 3-(8-(2,6-difluorophenyl)-2-{[2-(dimethylamino)ethyl]amino}-7-oxo-5,6,7,8-tetrahydropyrimido[4,5-d]pyrimidin-4-yl)-4-methyl-N-phenylbenzamide], the “inhibition of neutrophilia” value is reported as “statistically significant inhibition of neutrophilia”. With `Cc1ccc(C(=O)Nc2ccc(F)c(F)c2)cc1-c1nc(NCCN(C)C)nc2c1CNC(=O)N2c1c(F)cccc1F` [Example 138, N-(3,4-difluorophenyl)-3-(8-(2,6-difluorophenyl)-2-{[2-(dimethylamino)-ethyl]amino}-7-oxo-5,6,7,8-tetrahydropyrimido[4,5-d]pyrimidin-4-yl)-4-methylbenzamide] the “inhibition of neutrophilia” value was “statistically significant inhibition of neutrophilia”. `COc1ccc(NC(=O)c2ccc(C)c(-c3nc(NCCN(C)C)nc4c3CNC(=O)N4c3c(F)cccc3F)c2)cn1` [Example 140, 3-(8-(2,6-difluorophenyl)-2-{[2-(dimethylamino)ethyl]amino}-7-oxo-5,6,7,8-tetrahydropyrimido[4,5-d]pyrimidin-4-yl)-4-methyl-N-[6-(methyloxy)-3-pyridinyl]benzamide] was tested, and the “inhibition of neutrophilia” value was “statistically significant inhibition of neutrophilia”. In the case of `CCc1ccc(C(=O)Nc2nccs2)cc1-c1nc(NCCN(C)C)nc2c1CNC(=O)N2c1c(F)cccc1F` [Example 144, 3-(8-(2,6-difluorophenyl)-2-{[2-(dimethylamino)ethyl]amino}-7-oxo-5,6,7,8-tetrahydropyrimido[4,5-d]pyrimidin-4-yl)-4-ethyl-N-1,3-thiazol-2-ylbenzamide trifluoroacetate], the “inhibition of neutrophilia” value is reported as “statistically significant inhibition of neutrophilia”.
